Format in all cases: cell-based, human
The test system of experiment [1] is ImMucin specific T-cell subpopulation. Briefly: Proliferation of the ImMucin-specific T-cell subpopulation after three stimulations. To be noted: one out of two experiments, four donors. From the text:
(§1) Thawed PBLs underwent 1st stimulation with ImMucin pulsed Autologues DC at a ratio of 20:1 and cultured for 7 days in dedicated T cell Medium. T cell medium contained RPMI medium supplemented with 10% FCS, L-Glutamine, Sodium Pyruvate, MEM-EAGLE non-essential amino-acids, HEPES and Gentamycin Sulphate (Bet-Haemek Industries, IL) as well as with 50 IU/ml of recombinant IL-7 (Cytolab IL). For the second stimulation, PBL were transferred to adherent autologues ImMucin-pulsed PBMC and cultured for additional 5 days in T cell Medium. At the end of the 5 days, medium was partial replaced with fresh medium containing 1 ug/ml of ImMucin and 50 IU/ml IL-2 for a third stimulation of 48 h at 37° C. Following the last stimulation ImMucin T cell line was checked for immune activation properties.
(§2) Proliferation analysis was conducted in three different methods. In all three methods, plates were cultured for 3-5 days under visual control and then 0.5 […]Cu/well of 3[H] (Amersham) was added for additional culture of to 18 h at 37° C. In the last step, plates were harvested and the radioactive counts were measured in a □ counter. • 1. DC indirect presentation: In the first method, 100 µl of 2×10^6 thawed PBL were placed in U-shape Bottom 96 well plate (Nunc) with RPMI medium supplemented with 5% H AB serum, L-Glutamine, Sodium Pyruvate, MEM-EAGLE non-essential amino-acids, HEPES and Gentamycin. At the next stage 100 µl of 25×10^4 peptide-pulsed DC were added to each three wells of PBL and underwent proliferation analysis as described above. • 2. PBL direct presentation: In the 2nd method, 100 µl of 2×10^6 PBL were placed in Flat Bottom 96 well plates (Corning) and stimulated with different concentrations (0.05 ug/ml-2 ug/ml) of peptides. In the next step the cells underwent proliferation analysis as described above. • 3. PBMC direct presentation: In third method PNMC were used under similar conditions as described for the second method.
(§3) For that purpose, an enriched ImMucin-specific T cell subpopulation was produced via repeated stimulation with ImMucin. The specificity of the subpopulation for ImMucin, as well as to the other VXL epitopes, was examined using proliferation assays, cytokine release assays, FACS analysis in which the percentage and type of cells enriched during the enrichment process was analyzed, and using a CTL assay against selected target cells.
(§4) For producing the specific T cell subpopulation PBL were stimulated three times for 7, 5 and 2 days with ImMucin presented via DC and PBMC. Following the 3rd stimulation the cells were evaluated against the different VXL epitopes.

Experiment [2] deals with PBL. Briefly: Proliferation of PBL, DC indirect presentation (peptide-pulsed autologous DC). The method, then: (§5) Human PBMC were separated from buffy coat samples of naive donors using Ficoll UNI-SEPmaxi tube. Separated cells were suspended in RPMI medium supplemented with 10% FCS, L-Glutamine, Sodium Pyruvate, MEM-EAGLE non-essential amino-acids, HEPES and Gentamycin Sulphate (Bet-Haemek Industries, IL) and cultivated for 4 h at 37° C. in a culture dish (Corning 150 mm×25 mm). Adherent cells were collected and cultured for 7 days in serum free DCCM-1 medium supplemented with L-Glutamine, huIL-4 (1000 IU/ml) (Cytolab IL) and GM-CSF-80 ug/ml (Cytolab IL). On day seven floating cells were collected and loaded with 50 ug/ml of examined peptide for 18 h at 37° C.
as §2
In the first set of experiments, the 21mer ImMucin, its different 9mer epitopes and other control epitopes (Table 3) were evaluated in proliferation assays with the aim of finding their optimal mode of presentation, stimulated dose as well as their peak of activity (time wise).
To evaluate the most efficient method for priming of PBLs with the different peptides, the following methods were compared:
a. In-direct presentation of the peptide via Autologues-pulsed DC
(§6) Five experiments were performed according to the protocol described in material and methods with buffy-coat enriched PBLs obtained from six different naive donors (obtained from the Israeli blood bank).

Experiment [3] has as its system PBL. Put plainly: ELISA of cytokine secretion by PBL stimulated once with peptide-pulsed DC. How it is done:
as §5
(§7) Cytokine release was studied during the culture of stimulated T-cells. The evaluated samples were collected from the T cell culture medium on day 2, 3, and 5 and stored until use at −20° C.
(§8) […] of the selected capture antibody (e.g. anti-Hu IFN-Gamma, or anti-Hu TNF-alfa or anti IL-2) were added to each well at the final concentration of 5 μg/ml in PBS. Plates were incubated for 2 h at R.T. or over night at 4° C. Next, […] of blocking solution were added for an incubation of 2 h at R.T. […] of evaluated samples were added in duplicate into 2 wells for 2 hours at RT. After 2 h of incubation at R.T plates were washed λ4 times in washing solution. In the next step, a Biotin-conjugated detection antibody (relevant to coated antibody) was added at a final concentration of 10 μg/ml in total volume of 100 μl for 1 h at R.T. Finally, 100 μl/well working dilution (1:10000 in Blocker solution) of Streptavidin-HRP were added to each well and incubated for 1 h at R.T.
(§9) Plates were washed λ6 times with PBS-Tween (0.4%) and 100 μl/well of TMB/E Solution (CHEMICON, Catalog #ES001) was added. The plates were then exposed until blue color appeared in the wells of the positive control and no color was detected in the blank wells. To stop the color reaction, 50 μl/well of 10% of Sulfuric acid was added. The plates were counted in ELISA-Reader using a 450 nm filter.

For another experiment, the system named is PBMC. Briefly: Proliferation, direct presentation of peptide via PBMC (monocytes). How it is done:
as §2
b. Direct presentation of the peptides via PBMC i.e. monocytes
as §6

The test system of experiment [4] is T-Cell specific subpopulation (Clones). Put plainly: ELISA of cytokine secretion by the T-cell specific subpopulation (clones) stimulated with peptides. As to conditions: two experiments, four donors.
Excerpt: as §1, §7, §8, §9, §3, §4

Experiment [5] relates to ImMucin specific enriched T-cell clone. Put plainly: ELISA of cytokine secretion during development of the ImMucin-specific T cell subpopulation by repeated stimulation (FIG. 1).
Excerpt: as §1, §7, §8, §9, §4

[6] abbreviates: optimal dose required for PBL activation, average of 5 experiments, six donors.
[7] abbreviates: peptide DC ratio 16:1, one out of five experiments, six donors.
Where [8] appears, read: peptide pulsed DC ratio 16:1, one out of two experiments, two donors (Table 12).
The mark [9] stands for this setting: after the second and third stimulations with ImMucin.

No end group written: not given here.

With MTPGTQSPFFLLLLLTVLTVV [ImMucin], in experiment [1], the “IS (Average)” value amounted to 3.2 and the “IS (Range)” value is 2.2-4.2. In the experiment with PBL [2] (naive donors, CPM sample / CPM control, representative of 5 experiments), the “PBL Index of stimulation (SI) via DC” value is 4. Moreover, in the experiment on PBL [2] (one out of five experiments, six donors), the “IS (SI of the peptides as indicated in Table 7)” value was determined as 4. The “Optimal dose via DC” value with PBL [2] (setting [6]) is 12.5-25 × × 10e6/well. Besides, the “IS (as indicated in Table 12)” value with PBL [2] (two donors) worked out at 2.8. Also, in the experiment on PBL [2] (visual inspection by light microscopy daily during 5 days, average of 5 experiments), the “Peak of Proliferation (Hours) via DC” value is 96 h. Besides, in the experiment on PBL [3] (setting [7]), the IL-2 is 3.62 ng/mL and the TNF-Alfa was found to be 11.6 ng/mL. In the experiment on PBL [3] (setting [8]), the IFN-gamma stood at 0.5 ng/mL and the TNF-Alfa worked out at 11.6 ng/mL. Moreover, in the experiment with PBMC (naive donors, representative of 5 experiments), the “PBL Index of stimulation (SI) via PBMC” value came to 2. Besides, in the experiment with PBMC (setting [6]), the “Optimal dose via PBMC” value lay in the range of 0.05 to 1 µg/mL. For the same sequence, the “Peak of Proliferation (Hours) via PBMC” value with PBMC (visual inspection daily during 5 days, average of 5 experiments) is 120 h. For the same sequence, in experiment [4], the “IL-2 % of clones” value turned out to be 83%, the “INF-gamma % of clones” value was determined as 90%, the “TNF-Alfa % of clones” value amounted to 90% and the “TNF-Alfa Range” value fell in the range of 2.7 to 8.9 ng/mL. In addition, the TNF-Alfa secretion result in experiment [5] (after the 3rd stimulation on day 14) is “completely disappeared”. Also, in experiment [5] (setting [9]), the “IL-2 secretion from CD4+ T cells” value is “increased dramatically” and the “INF-gamma secretion mainly from CD8+ T cells” value is reported as “increased dramatically”. Moreover, the “TNF-Alfa secretion, peak” value in experiment [5] (during the first stimulation with ImMucin (FIG. 1)) amounted to 5 ng/mL. Moreover, the TNF-Alfa secretion result in experiment [5] (following a second stimulation with ImMucin) is recorded as “decreased”.
